Measured values from ChEMBL document CHEMBL3885861, “Open TG-GATES”.

Species on record: Rattus norvegicus
Assay: Open TG-GATES - Regimen: Single
Format: toxicity, organism-based, Sprague-Dawley
Set-up: regimen Single, gender Male, age 6 weeks
Conditions: in vivo, po, route gavage; for Hb / Ht / Lym / MCHC / MCV / Mono / Neu / PT / Plat / RBC / Ret / WBC / APTT / Bas / Eos / Fbg: tissue Blood; for KIDNEY_L / KIDNEY_R / KIDNEY_TOTAL: tissue Kidney; for LIVER: tissue Liver; for ALP / ALT / AST / BUN / CRE / Ca / Cl / DBIL / IP / LDH / Na / PL / RALB / TBIL / TC / TG / TP / gamma-GTP / GLC: tissue Plasma
[1] = 120 mg/kg, 3 h, dose level Middle

In the case of `CC(C)N(CCC(C(N)=O)(c1ccccc1)c1ccccn1)C(C)C` (centres undefined) [DISOPYRAMIDE], the Hb (40 mg/kg, 3 h, dose level Low) is reported as 13 g/dL, the Ht (40 mg/kg, 3 h, dose level Low) is reported as 40.8% and the Lym (40 mg/kg, 3 h, dose level Low) is reported as 79.6%. For the same compound, the MCHC (40 mg/kg, 3 h, dose level Low) was 32%, the MCV (40 mg/kg, 3 h, dose level Low) was 64.4 fL and the Mono (40 mg/kg, 3 h, dose level Low) was 2.6%. For the same compound, the Neu (40 mg/kg, 3 h, dose level Low) was 15.8%, the PT (40 mg/kg, 3 h, dose level Low) was 15.5 s and the Plat (40 mg/kg, 3 h, dose level Low) was 122.4 x10_4/uL. For the same compound, the RBC (40 mg/kg, 3 h, dose level Low) was 633.6 x10_4/ul, the Ret (40 mg/kg, 3 h, dose level Low) was 8.2% and the WBC (40 mg/kg, 3 h, dose level Low) was 102.4 x10_2/uL. It also gave a KIDNEY_L (40 mg/kg, 3 h, dose level Low) of 0.9 g, a KIDNEY_R (40 mg/kg, 3 h, dose level Low) of 1 g and a KIDNEY_TOTAL (40 mg/kg, 3 h, dose level Low) of 1.9 g. It also gave an LIVER (40 mg/kg, 3 h, dose level Low) of 9.9 g, an ALP (40 mg/kg, 3 h, dose level Low) of 1280.4 IU/L and an ALT (40 mg/kg, 3 h, dose level Low) of 48.2 IU/L. The AST (40 mg/kg, 3 h, dose level Low) was 73.2 IU/L, the BUN (40 mg/kg, 3 h, dose level Low) was 10.6 mg/dL and the CRE (40 mg/kg, 3 h, dose level Low) was 0.2 mg/dL. For the same compound, the Ca (40 mg/kg, 3 h, dose level Low) was 10.7 mg/dL, the Cl (40 mg/kg, 3 h, dose level Low) was 107.4 meq/L and the DBIL (40 mg/kg, 3 h, dose level Low) was 0 mg/dL. The IP (40 mg/kg, 3 h, dose level Low) was 8.5 mg/dL, the LDH (40 mg/kg, 3 h, dose level Low) was 163.4 IU/L and the Na (40 mg/kg, 3 h, dose level Low) was 140.8 meq/L. It also gave a PL (40 mg/kg, 3 h, dose level Low) of 143.2 mg/dL, an RALB (40 mg/kg, 3 h, dose level Low) of 3 g/dL and a TBIL (40 mg/kg, 3 h, dose level Low) of 0.002 mg/dL. For the same compound, the TC (40 mg/kg, 3 h, dose level Low) was 82.4 mg/dL, the TG (40 mg/kg, 3 h, dose level Low) was 60.6 mg/dL and the TP (40 mg/kg, 3 h, dose level Low) was 5.5 g/dL. The gamma-GTP (40 mg/kg, 3 h, dose level Low) was 1.6 IU/L, the TERMINAL_BW (40 mg/kg, 6 h, dose level Low) was 212.3 g and the APTT (40 mg/kg, 6 h, dose level Low) was 21.2 s. For the same compound, the Bas (40 mg/kg, 6 h, dose level Low) was 0%, the Eos (40 mg/kg, 6 h, dose level Low) was 0.6% and the Fbg (40 mg/kg, 6 h, dose level Low) was 307.6 mg/dL. It also gave a Hb (40 mg/kg, 6 h, dose level Low) of 13 g/dL, a Ht (40 mg/kg, 6 h, dose level Low) of 40.9% and a Lym (40 mg/kg, 6 h, dose level Low) of 80.6%. For the same compound, the MCHC (40 mg/kg, 6 h, dose level Low) was 31.8%, the MCV (40 mg/kg, 6 h, dose level Low) was 64.3 fL and the Mono (40 mg/kg, 6 h, dose level Low) was 2.4%. For the same compound, the Neu (40 mg/kg, 6 h, dose level Low) was 15.8%, the PT (40 mg/kg, 6 h, dose level Low) was 15.5 s and the Plat (40 mg/kg, 6 h, dose level Low) was 119.9 x10_4/uL. The RBC (40 mg/kg, 6 h, dose level Low) was 635.8 x10_4/ul, the Ret (40 mg/kg, 6 h, dose level Low) was 8.1% and the WBC (40 mg/kg, 6 h, dose level Low) was 80.4 x10_2/uL. For the same compound, the KIDNEY_L (40 mg/kg, 6 h, dose level Low) was 1 g, the KIDNEY_R (40 mg/kg, 6 h, dose level Low) was 1 g and the KIDNEY_TOTAL (40 mg/kg, 6 h, dose level Low) was 2 g. The LIVER (40 mg/kg, 6 h, dose level Low) was 9.3 g, the ALP (40 mg/kg, 6 h, dose level Low) was 1258.6 IU/L and the ALT (40 mg/kg, 6 h, dose level Low) was 40 IU/L. The AST (40 mg/kg, 6 h, dose level Low) was 71.2 IU/L, the BUN (40 mg/kg, 6 h, dose level Low) was 12.4 mg/dL and the CRE (40 mg/kg, 6 h, dose level Low) was 0.1 mg/dL. The Ca (40 mg/kg, 6 h, dose level Low) was 10.8 mg/dL, the Cl (40 mg/kg, 6 h, dose level Low) was 106.2 meq/L and the DBIL (40 mg/kg, 6 h, dose level Low) was 0 mg/dL. For the same compound, the GLC (40 mg/kg, 6 h, dose level Low) was 168.6 mg/dL, the IP (40 mg/kg, 6 h, dose level Low) was 9.5 mg/dL and the LDH (40 mg/kg, 6 h, dose level Low) was 161.8 IU/L. It also gave a Na (40 mg/kg, 6 h, dose level Low) of 140 meq/L, a PL (40 mg/kg, 6 h, dose level Low) of 132.2 mg/dL and an RALB (40 mg/kg, 6 h, dose level Low) of 3 g/dL. It also gave a TBIL (40 mg/kg, 6 h, dose level Low) of 0.008 mg/dL, a TC (40 mg/kg, 6 h, dose level Low) of 75 mg/dL and a TG (40 mg/kg, 6 h, dose level Low) of 75.8 mg/dL. It also gave a TP (40 mg/kg, 6 h, dose level Low) of 5.4 g/dL, a gamma-GTP (40 mg/kg, 6 h, dose level Low) of 1 IU/L and a TERMINAL_BW (40 mg/kg, 9 h, dose level Low) of 203.3 g. The APTT (40 mg/kg, 9 h, dose level Low) was 21.6 s, the Bas (40 mg/kg, 9 h, dose level Low) was 0% and the Eos (40 mg/kg, 9 h, dose level Low) was 0.6%. For the same compound, the Fbg (40 mg/kg, 9 h, dose level Low) was 328.4 mg/dL, the Hb (40 mg/kg, 9 h, dose level Low) was 13 g/dL and the Ht (40 mg/kg, 9 h, dose level Low) was 40.3%. For the same compound, the Lym (40 mg/kg, 9 h, dose level Low) was 77.6%, the MCHC (40 mg/kg, 9 h, dose level Low) was 32.3% and the MCV (40 mg/kg, 9 h, dose level Low) was 64 fL. For the same compound, the Mono (40 mg/kg, 9 h, dose level Low) was 2%, the PT (40 mg/kg, 9 h, dose level Low) was 15.6 s and the Plat (40 mg/kg, 9 h, dose level Low) was 124.6 x10_4/uL. The RBC (40 mg/kg, 9 h, dose level Low) was 630.4 x10_4/ul, the Ret (40 mg/kg, 9 h, dose level Low) was 7.9% and the WBC (40 mg/kg, 9 h, dose level Low) was 88.7 x10_2/uL. The KIDNEY_L (40 mg/kg, 9 h, dose level Low) was 0.9 g, the KIDNEY_R (40 mg/kg, 9 h, dose level Low) was 1 g and the KIDNEY_TOTAL (40 mg/kg, 9 h, dose level Low) was 1.9 g. It also gave an LIVER (40 mg/kg, 9 h, dose level Low) of 8.7 g, an ALP (40 mg/kg, 9 h, dose level Low) of 1420.4 IU/L and an ALT (40 mg/kg, 9 h, dose level Low) of 34.2 IU/L. The AST (40 mg/kg, 9 h, dose level Low) was 68.6 IU/L, the BUN (40 mg/kg, 9 h, dose level Low) was 12.4 mg/dL and the CRE (40 mg/kg, 9 h, dose level Low) was 0.1 mg/dL. The Ca (40 mg/kg, 9 h, dose level Low) was 10.8 mg/dL, the Cl (40 mg/kg, 9 h, dose level Low) was 107.2 meq/L and the DBIL (40 mg/kg, 9 h, dose level Low) was 0 mg/dL. For the same compound, the GLC (40 mg/kg, 9 h, dose level Low) was 169.6 mg/dL, the IP (40 mg/kg, 9 h, dose level Low) was 9.5 mg/dL and the LDH (40 mg/kg, 9 h, dose level Low) was 151.6 IU/L. For the same compound, the Na (40 mg/kg, 9 h, dose level Low) was 140.8 meq/L, the PL (40 mg/kg, 9 h, dose level Low) was 129.4 mg/dL and the RALB (40 mg/kg, 9 h, dose level Low) was 3.1 g/dL. It also gave a TBIL (40 mg/kg, 9 h, dose level Low) of 0.008 mg/dL, a TC (40 mg/kg, 9 h, dose level Low) of 75.4 mg/dL and a TG (40 mg/kg, 9 h, dose level Low) of 58.2 mg/dL. For the same compound, the TP (40 mg/kg, 9 h, dose level Low) was 5.5 g/dL, the gamma-GTP (40 mg/kg, 9 h, dose level Low) was 1.2 IU/L and the TERMINAL_BW (40 mg/kg, 24 h, dose level Low) was 217.8 g. The APTT (40 mg/kg, 24 h, dose level Low) was 22.7 s, the Bas (40 mg/kg, 24 h, dose level Low) was 0% and the Eos (40 mg/kg, 24 h, dose level Low) was 0.8%. The Fbg (40 mg/kg, 24 h, dose level Low) was 306 mg/dL, the Hb (40 mg/kg, 24 h, dose level Low) was 13.2 g/dL and the Ht (40 mg/kg, 24 h, dose level Low) was 40.2%. The Lym (40 mg/kg, 24 h, dose level Low) was 79.4%, the MCHC (40 mg/kg, 24 h, dose level Low) was 32.8% and the MCV (40 mg/kg, 24 h, dose level Low) was 64.5 fL. For the same compound, the Mono (40 mg/kg, 24 h, dose level Low) was 1.8%, the Neu (40 mg/kg, 24 h, dose level Low) was 17.2% and the PT (40 mg/kg, 24 h, dose level Low) was 15.3 s. For the same compound, the Plat (40 mg/kg, 24 h, dose level Low) was 115.3 x10_4/uL, the RBC (40 mg/kg, 24 h, dose level Low) was 623 x10_4/ul and the Ret (40 mg/kg, 24 h, dose level Low) was 7%. For the same compound, the WBC (40 mg/kg, 24 h, dose level Low) was 91.1 x10_2/uL, the KIDNEY_L (40 mg/kg, 24 h, dose level Low) was 0.9 g and the KIDNEY_R (40 mg/kg, 24 h, dose level Low) was 1 g. The KIDNEY_TOTAL (40 mg/kg, 24 h, dose level Low) was 1.9 g, the LIVER (40 mg/kg, 24 h, dose level Low) was 10.5 g and the ALP (40 mg/kg, 24 h, dose level Low) was 1700.4 IU/L. For the same compound, the ALT (40 mg/kg, 24 h, dose level Low) was 47.2 IU/L, the AST (40 mg/kg, 24 h, dose level Low) was 71.8 IU/L and the BUN (40 mg/kg, 24 h, dose level Low) was 15.4 mg/dL. The CRE (40 mg/kg, 24 h, dose level Low) was 0.1 mg/dL, the Ca (40 mg/kg, 24 h, dose level Low) was 10.6 mg/dL and the Cl (40 mg/kg, 24 h, dose level Low) was 105.6 meq/L. For the same compound, the DBIL (40 mg/kg, 24 h, dose level Low) was 0 mg/dL, the IP (40 mg/kg, 24 h, dose level Low) was 8 mg/dL and the LDH (40 mg/kg, 24 h, dose level Low) was 156.2 IU/L. It also gave a Na (40 mg/kg, 24 h, dose level Low) of 142.8 meq/L, a PL (40 mg/kg, 24 h, dose level Low) of 147 mg/dL and an RALB (40 mg/kg, 24 h, dose level Low) of 3 g/dL. The TBIL (40 mg/kg, 24 h, dose level Low) was 0.002 mg/dL, the TC (40 mg/kg, 24 h, dose level Low) was 76.4 mg/dL and the TG (40 mg/kg, 24 h, dose level Low) was 96 mg/dL. It also gave a TP (40 mg/kg, 24 h, dose level Low) of 5.4 g/dL, a gamma-GTP (40 mg/kg, 24 h, dose level Low) of 1.6 IU/L and a TERMINAL_BW [1] of 205.2 g. The APTT [1] was 23.3 s.
